# Laboratory results as given in paper PMC8467575, “Bacterial-Specific Aggregation and Killing of Immunomodulatory Host Defense Peptides” (Pharmaceuticals, 2021).
# pIC50: −log10 of the molar value. Like-named read-outs stand apart in the source and are kept apart here. Where a SMILES comes first, the peptide text is derived from it. Bridges are numbered along the chain shown (N, C = ends).
# Experiments:
# [1] = system: E. coli (ATCC 25922GFP) in Caco-2 cells; assay: Bacterial infection of Caco-2 cells; assay type: cell-based, Escherichia coli; conditions: 400,000 CFU/mL GFP-expressing E. coli, 5 µM peptide, 5 h, fluorescence microscopy
# Protocol: Caco-2 cells grown in six-well plates were also infected with E. coli (ATCC 25922GFP) at a CFU of 400,000 cells/mL. Cells were then incubated with 5 µM of TAMRA-labeled peptides for 5 h and were observed under fluorescence microscope for the presence of fluorescent bacteria.
# E. coli = assay: Bacterial uptake of TAMRA-labeled peptides; assay type: cell-based, Escherichia coli; conditions: 5 µM, up to 5 h, log phase culture, fluorescence of free peptide in supernatant, triplicate
# Protocol: (§1) TAMRA-conjugated peptides were used for cellular uptake studies. Liquid cultures of E. coli and Bacillus subtilis at log phase (OD600 ≈ 0.3–0.4) were incubated with TAMRA-labeled peptides (5 µM), and the percentage uptake of peptides was determined in triplicate for 5 h by measuring the fluorescence of free peptide in the supernatant of bacteria at […] wavelengths of 579 and 546 nm. (1) % Uptake=100−Fluorescence of supernatant/Initial fluorescence of sample×100%
# [2] = system: DF-1 chicken embryonic fibroblasts; assay: Cytotoxicity assay (MTS); assay type: cell-based; conditions: 100 µM peptide, 24 h, triplicate
# Protocol: (§2) DF-1 chicken embryonic fibroblasts were cultured in DMEM containing 8% FBS and 2% CS. Caco-2 cells were cultured in EMEM containing 20% FBS. Cells in growth phase (~70% confluency) were incubated with a 100 µM concentration of each peptide for 24 h. Cell viability was determined in triplicate by MTS assay using the CellTiter 96® AQueous Cell Proliferation Assay, as per the manufacturer’s protocol.
# Bacillus subtilis = assay: Bacterial uptake of TAMRA-labeled peptides; assay type: cell-based; conditions: 5 µM, up to 5 h, log phase culture, fluorescence of free peptide in supernatant, triplicate
# Protocol: as §1
# [3] = system: Caco-2 human colorectal adenocarcinoma cells; assay: Cellular uptake of TAMRA-labeled peptides (flow cytometry, fluorescence microscopy); assay type: cell-based; conditions: 5 h
# Protocol: Caco-2 human colorectal adenocarcinoma cells were cultured to growth phase (~70% confluency) in EMEM containing 20% FBS and were treated with 5 µM of TAMRA-labeled peptides for 5 h. The uptake of fluorescently labeled peptide in Caco-2 human colorectal adenocarcinoma cells was measured by flow cytometry using BD FACS Calibur (BD Biosciences (Franklin Lakes, NJ, USA)) and by fluorescence microscopy.
# Caco-2 cells = assay: Cytotoxicity assay (MTS); assay type: cell-based, human; conditions: 100 µM peptide, 24 h, triplicate
# Protocol: as §2
# [4] = system: Salmonella enterica ATCC 13076; assay: microbe, parasite or virus in culture; assay type: cell-based; conditions: for MIC: read-out: MIC S. enterica
# Protocol: (§3) E. coli, S. aureus, and S. enterica were cultured in nutrient broth at 37 °C. Listeria was cultured in brain heart infusion broth at 37 °C. Bacteria at early log phase (OD600 ≈ 0.1) were incubated with the peptides at different concentrations (100–3.12 µM) for 4–6 h. After the incubation period, the bacterial culture medium was diluted at different ratios (1 in 2000–2,000,000) in sterile PBS and was spread on blood agar (BA) plates. BA plates were incubated at 37 °C for 24 h, and the number of colonies formed was counted to determine cell viability.
# [5] = system: Escherichia coli ATCC 25922; assay: microbe, parasite or virus in culture; assay type: cell-based
# Protocol: as §3
# [6] = system: Staphylococcus aureus ATCC 25923; assay: microbe, parasite or virus in culture; assay type: cell-based
# Protocol: as §3
# [7] = system: Listeria monocytogenes ATCC 19115; assay type: cell-based
# Protocol: as §3
# [8] = system: chicken red blood cell suspension; assay: Hemolysis assay; assay type: cell-based; conditions: eukaryotic cells (cytotoxicity and hemolysis at 100 µM) versus antibacterial IC50
# Protocol: A chicken red blood cell suspension was purchased from Cedarlane (Burlington, CA). RBCs were incubated with a 100 µM concentration of each peptide at 37 °C for 4 h. Triton-X was used as a positive control to achieve total hemolysis of RBCs. Percentage hemolysis was determined in triplicate by centrifuging down the RBC suspension and by measuring the absorbance of the supernatant at 540 nm. (2) % Hemolysis=Absorbance of sample @540nm /Absorbance of positive control @540nm×100%.
SMILES,reduction of bacterial infection of Caco-2 cells [1],uptake of TAMRA-labeled peptide in E. coli (E. coli),viability of DF-1 fibroblasts [2],uptake of TAMRA-labeled peptide in B. subtilis (Bacillus subtilis),"% fluorescent cells (cellular uptake) ([3]; Caco-2, 5 µM TAMRA-labeled peptide, flow cytometry) [%]","uptake of fluorescent peptide seen by fluorescence microscopy ([3]; Caco-2, TAMRA-labeled peptide)",viability of Caco-2 intestinal epithelial cells (Caco-2 cells),"pIC50 ([4]; Salmonella enterica, ATCC13076, early log phase (OD600 ≈ 0.1), nutrient broth 37 °C, peptide 100–3.12 µM for 4–6 h, colony count on blood agar after 24 h, read-out: IC50 S. enterica)","MIC ([4]; Salmonella enterica, ATCC13076, early log phase, nutrient broth 37 °C, 4–6 h, colony count on blood agar) [µM]","pIC50 ([5]; Escherichia coli, ATCC25922, early log phase (OD600 ≈ 0.1), nutrient broth 37 °C, peptide 100–3.12 µM for 4–6 h, colony count on blood agar after 24 h, read-out: IC50 E. coli)","pIC50 ([6]; Staphylococcus aureus, ATCC25923, early log phase (OD600 ≈ 0.1), nutrient broth 37 °C, peptide 100–3.12 µM for 4–6 h, colony count on blood agar after 24 h, read-out: IC50 S. aureus)",pIC50 ([4]; ATCC 13076),MIC ([4]; ATCC 13076) [µM],pIC50 ([5]; ATCC 25922),MIC E. coli ([5]; ATCC 25922) [µM],pIC50 ([6]; ATCC 25923),MIC S. aureus ([6]; ATCC 25923) [µM],pIC50 [7],MIC L. monocytogenes [7] [µM],nontoxic and hemocompatible concentration as fold of the IC50 of the peptide [8] [fold]
N=C(N)NCCC[C@@H]1NC(=O)[C@H](CCCNC(=N)N)NC(=O)[C@H](CCCNC(=N)N)NC(=O)[C@@H](N)CSSC[C@@H](C(N)=O)NC(=O)[C@H](Cc2c[nH]cn2)NC(=O)[C@@H]2CCCN2C(=O)[C@H](CO)NC(=O)CNC1=O [mCA4-4] (H-CRRRGSPHC-NH2; disulfide 1-9),unable to reduce the bacterial burden,taken up well,did not compromise the viability,taken up well,19,weak fluorescence,did not compromise the viability,,,,,,,,,,,,,
"CC1(C)S[C@@H]2[C@H](NC(=O)[C@H](N)c3ccccc3)C(=O)N2[C@H]1C(=O)O [Ampicillin, reference compound]",,,,,,,,5.15,13.5,4.82,5.44,,,,,,,,,
CC[C@H](C)[C@@H]1NC(=O)[C@H](CCCNC(=N)N)NC(=O)[C@H](Cc2ccccc2)NC(=O)[C@H](CCCCN)NC(=O)[C@H](Cc2ccccc2)NC(=O)[C@H](CCCNC(=N)N)NC(=O)[C@@H](N)CSSC[C@@H](C(N)=O)NC(=O)[C@H]([C@@H](C)CC)NC(=O)[C@H](C(C)C)NC1=O [mCA4-5] (H-CRFKFRIVIC-NH2; disulfide 1-10),actively contained and reduced bacterial infections,,,,,,,,,,,4.99,30,4.82,40,5.40,15,5.28,10,> 6
